Species on record: Rattus norvegicus
Experiment: Open TG-GATES - Regimen: Daily Repeat
Type: toxicity, organism-based, Sprague-Dawley
Design: regimen Daily Repeat, gender Male, age 6 weeks
Settings: in vivo, po, 0 mg/kg, route gavage, dose level Control; for APTT / Bas / Eos / Fbg / Hb / Ht / Lym / MCH / MCHC / MCV / Mono / Neu / PT / Plat / RBC / Ret / WBC: tissue Blood; for KIDNEY_L / KIDNEY_R / KIDNEY_TOTAL: tissue Kidney; for LIVER: tissue Liver; for A/G / ALP / ALT / AST / BUN / CRE / Ca / Cl / DBIL / GLC / IP / K / LDH / Na / PL / RALB / TBIL / TC / TG / TP / gamma-GTP: tissue Plasma

CC(C)(S)[C@@H](N)C(=O)O [PENICILLAMINE] showed a TERMINAL_BW (72 h, time 3 day) of 235.9 g, an APTT (72 h, time 3 day) of 15.9 s and a Bas (72 h, time 3 day) of 0.2%. It also gave an Eos (72 h, time 3 day) of 0.6%, a Fbg (72 h, time 3 day) of 305 mg/dL and a Hb (72 h, time 3 day) of 13.7 g/dL. For the same compound, the Ht (72 h, time 3 day) was 41.9%, the Lym (72 h, time 3 day) was 75.8% and the MCH (72 h, time 3 day) was 21.1 pg. For the same compound, the MCHC (72 h, time 3 day) was 32.7%, the MCV (72 h, time 3 day) was 64.6 fL and the Mono (72 h, time 3 day) was 3%. It also gave a Neu (72 h, time 3 day) of 19.6%, a PT (72 h, time 3 day) of 13.8 s and a Plat (72 h, time 3 day) of 131.2 x10_4/uL. For the same compound, the RBC (72 h, time 3 day) was 648.8 x10_4/ul, the Ret (72 h, time 3 day) was 7.1% and the WBC (72 h, time 3 day) was 113.2 x10_2/uL. For the same compound, the KIDNEY_L (72 h, time 3 day) was 0.9 g, the KIDNEY_R (72 h, time 3 day) was 0.9 g and the KIDNEY_TOTAL (72 h, time 3 day) was 1.9 g. The LIVER (72 h, time 3 day) was 11.2 g, the A/G (72 h, time 3 day) was 0.9 and the ALP (72 h, time 3 day) was 1527 IU/L. The ALT (72 h, time 3 day) was 43.4 IU/L, the AST (72 h, time 3 day) was 69 IU/L and the BUN (72 h, time 3 day) was 14.6 mg/dL. It also gave a CRE (72 h, time 3 day) of 0.2 mg/dL, a Ca (72 h, time 3 day) of 11.1 mg/dL and a Cl (72 h, time 3 day) of 106.2 meq/L. The DBIL (72 h, time 3 day) was 0.014 mg/dL, the GLC (72 h, time 3 day) was 177.8 mg/dL and the IP (72 h, time 3 day) was 6.8 mg/dL. For the same compound, the K (72 h, time 3 day) was 4.1 meq/L, the LDH (72 h, time 3 day) was 84.4 IU/L and the Na (72 h, time 3 day) was 144.2 meq/L. The PL (72 h, time 3 day) was 171.8 mg/dL, the RALB (72 h, time 3 day) was 2.8 g/dL and the TBIL (72 h, time 3 day) was 0.018 mg/dL. For the same compound, the TC (72 h, time 3 day) was 90.2 mg/dL, the TG (72 h, time 3 day) was 118.8 mg/dL and the TP (72 h, time 3 day) was 5.8 g/dL. For the same compound, the gamma-GTP (72 h, time 3 day) was 1 IU/L, the TERMINAL_BW ([…], time 7 day) was 275.3 g and the TERMINAL_BW ([…], time 14 day) was 335.9 g. It also gave a TERMINAL_BW ([…], time 28 day) of 405.5 g, an APTT ([…], time 7 day) of 17.9 s and a Bas ([…], time 7 day) of 0%. The Eos ([…], time 7 day) was 1%, the Fbg ([…], time 7 day) was 320.4 mg/dL and the Hb ([…], time 7 day) was 14.2 g/dL. For the same compound, the Ht ([…], time 7 day) was 43.2%, the Lym ([…], time 7 day) was 72.8% and the MCH ([…], time 7 day) was 21 pg. For the same compound, the MCHC ([…], time 7 day) was 32.8%, the MCV ([…], time 7 day) was 64.1 fL and the Mono ([…], time 7 day) was 2.8%. For the same compound, the Neu ([…], time 7 day) was 22.4%, the PT ([…], time 7 day) was 13.9 s and the Plat ([…], time 7 day) was 121.1 x10_4/uL. The RBC ([…], time 7 day) was 674.8 x10_4/ul, the Ret ([…], time 7 day) was 5.9% and the WBC ([…], time 7 day) was 98.3 x10_2/uL. It also gave an APTT ([…], time 14 day) of 19.2 s, a Bas ([…], time 14 day) of 0% and an Eos ([…], time 14 day) of 1.2%. The Fbg ([…], time 14 day) was 292.4 mg/dL, the Hb ([…], time 14 day) was 14.8 g/dL and the Ht ([…], time 14 day) was 43.7%. For the same compound, the Lym ([…], time 14 day) was 80.4%, the MCH ([…], time 14 day) was 20.4 pg and the MCHC ([…], time 14 day) was 33.9%. It also gave an MCV ([…], time 14 day) of 60.2 fL, a Mono ([…], time 14 day) of 2% and a Neu ([…], time 14 day) of 15.8%. For the same compound, the PT ([…], time 14 day) was 14.2 s, the Plat ([…], time 14 day) was 122.3 x10_4/uL and the RBC ([…], time 14 day) was 724.8 x10_4/ul. It also gave a Ret ([…], time 14 day) of 4.5%, a WBC ([…], time 14 day) of 90.4 x10_2/uL and an APTT ([…], time 28 day) of 18.4 s. For the same compound, the Bas ([…], time 28 day) was 0%, the Eos ([…], time 28 day) was 1.4% and the Fbg ([…], time 28 day) was 300.8 mg/dL. It also gave a Hb ([…], time 28 day) of 15.6 g/dL, a Ht ([…], time 28 day) of 45.4% and a Lym ([…], time 28 day) of 79.2%. For the same compound, the MCH ([…], time 28 day) was 19.8 pg, the MCHC ([…], time 28 day) was 34.2% and the MCV ([…], time 28 day) was 58 fL. The Mono ([…], time 28 day) was 2.2%, the Neu ([…], time 28 day) was 16.2% and the PT ([…], time 28 day) was 14.1 s. It also gave a Plat ([…], time 28 day) of 103.8 x10_4/uL, an RBC ([…], time 28 day) of 783.8 x10_4/ul and a Ret ([…], time 28 day) of 2.6%. The WBC ([…], time 28 day) was 93.7 x10_2/uL, the KIDNEY_L ([…], time 7 day) was 1.1 g and the KIDNEY_R ([…], time 7 day) was 1.1 g. For the same compound, the KIDNEY_TOTAL ([…], time 7 day) was 2.2 g, the KIDNEY_L ([…], time 14 day) was 1.3 g and the KIDNEY_R ([…], time 14 day) was 1.3 g. The KIDNEY_TOTAL ([…], time 14 day) was 2.6 g, the KIDNEY_L ([…], time 28 day) was 1.4 g and the KIDNEY_R ([…], time 28 day) was 1.4 g. The KIDNEY_TOTAL ([…], time 28 day) was 2.8 g, the LIVER ([…], time 7 day) was 13 g and the LIVER ([…], time 14 day) was 15.3 g. For the same compound, the LIVER ([…], time 28 day) was 16.3 g, the A/G ([…], time 7 day) was 0.9 and the ALP ([…], time 7 day) was 1428 IU/L. The ALT ([…], time 7 day) was 45.4 IU/L, the AST ([…], time 7 day) was 68.6 IU/L and the BUN ([…], time 7 day) was 15 mg/dL. The CRE ([…], time 7 day) was 0.2 mg/dL, the Ca ([…], time 7 day) was 10.9 mg/dL and the Cl ([…], time 7 day) was 105.2 meq/L. For the same compound, the DBIL ([…], time 7 day) was 0.018 mg/dL, the GLC ([…], time 7 day) was 189.8 mg/dL and the IP ([…], time 7 day) was 6.6 mg/dL. The K ([…], time 7 day) was 4 meq/L, the LDH ([…], time 7 day) was 71.6 IU/L and the Na ([…], time 7 day) was 142.2 meq/L. It also gave a PL ([…], time 7 day) of 159 mg/dL, an RALB ([…], time 7 day) of 2.8 g/dL and a TBIL ([…], time 7 day) of 0.028 mg/dL. For the same compound, the TC ([…], time 7 day) was 74.4 mg/dL, the TG ([…], time 7 day) was 131.2 mg/dL and the TP ([…], time 7 day) was 5.8 g/dL. For the same compound, the gamma-GTP ([…], time 7 day) was 0.8 IU/L, the A/G ([…], time 14 day) was 0.9 and the ALP ([…], time 14 day) was 1246.2 IU/L. For the same compound, the ALT ([…], time 14 day) was 41.4 IU/L, the AST ([…], time 14 day) was 68.2 IU/L and the BUN ([…], time 14 day) was 16.2 mg/dL. The CRE ([…], time 14 day) was 0.2 mg/dL, the Ca ([…], time 14 day) was 10.9 mg/dL and the Cl ([…], time 14 day) was 105.2 meq/L. It also gave a DBIL ([…], time 14 day) of 0.01 mg/dL, a GLC ([…], time 14 day) of 189 mg/dL and an IP ([…], time 14 day) of 6.2 mg/dL. It also gave a K ([…], time 14 day) of 4.2 meq/L, an LDH ([…], time 14 day) of 107.4 IU/L and a Na ([…], time 14 day) of 143 meq/L. It also gave a PL ([…], time 14 day) of 155.6 mg/dL, an RALB ([…], time 14 day) of 2.8 g/dL and a TBIL ([…], time 14 day) of 0.024 mg/dL. The TC ([…], time 14 day) was 71.4 mg/dL, the TG ([…], time 14 day) was 150.4 mg/dL and the TP ([…], time 14 day) was 6.1 g/dL. The gamma-GTP ([…], time 14 day) was 0.8 IU/L, the A/G ([…], time 28 day) was 0.9 and the ALP ([…], time 28 day) was 945.4 IU/L. It also gave an ALT ([…], time 28 day) of 29.6 IU/L, an AST ([…], time 28 day) of 58.4 IU/L and a BUN ([…], time 28 day) of 15.4 mg/dL. It also gave a CRE ([…], time 28 day) of 0.3 mg/dL, a Ca ([…], time 28 day) of 10.9 mg/dL and a Cl ([…], time 28 day) of 105.8 meq/L. It also gave a DBIL ([…], time 28 day) of 0.008 mg/dL, a GLC ([…], time 28 day) of 185 mg/dL and an IP ([…], time 28 day) of 6 mg/dL. It also gave a K ([…], time 28 day) of 3.6 meq/L, an LDH ([…], time 28 day) of 51.6 IU/L and a Na ([…], time 28 day) of 144 meq/L. For the same compound, the PL ([…], time 28 day) was 147.4 mg/dL, the RALB ([…], time 28 day) was 2.9 g/dL and the TBIL ([…], time 28 day) was 0.052 mg/dL. For the same compound, the TC ([…], time 28 day) was 67.6 mg/dL, the TG ([…], time 28 day) was 140.8 mg/dL and the TP ([…], time 28 day) was 6.3 g/dL. For the same compound, the gamma-GTP ([…], time 28 day) was 1.2 IU/L.
